Experiments:
[1] = tested on: CTGF expression in ARPE-19 cells; experiment: Thrombin-induced CTGF expression in ARPE-19 cell lysates (western blot); conditions: for reduction of thrombin-induced CTGF expression: thrombin 1 U/mL
Procedure: Cell culture experiments: Cells. Human ARPE-19 (ATCC® CRL-2302™; American Type Culture Collection, Manassas VA) cells were cultured in DMEM cell culture media (Gibco/ThermoFisher Scientific) containing high glucose DMEM with D-glucose (4.5 g/L), L-glutamine, sodium pyruvate (110 mg/L), Penicillin and Streptomycin (1×) and 10% of FBS. Cells (<passage 10 after purchase) were expanded in T75 cell culture flasks at 37° C., in the presence of 5% CO2. Confluent cells were trypsinized with 0.05% trypsin (Gibco), and equal numbers of cells were seeded on 6-well transwell filters/plate (Costar). […] Integrity of the cell monolayer was assessed by Transepithelial resistance (TER) measurements using an EVOM volt-ohmmeter (World Precision Instruments) four weeks after plating. RPE monolayers with a stable TER repeatedly measured as ˜40-45 S2 cm 2 were used for these experiments.
Treatments. Prior to each experiment, the cell monolayer was washed with serum-free medium (SFM) and maintained in SFM for 24 hours. […] Treatments were performed on the apical side of the transwell membrane, which represents the retinal side of the RPE in vivo. Some of the cells were treated with thrombin (EMD Millipore Corp), complement components C3a, C5a (Complement Technology), thrombin agonist PAR1-AP (Sigma-Aldrich; amino acid sequence SFLLRN (SEQ ID NO: 1)), thrombin inhibitor dabigatran etexilate (Sigma-Aldrich), C3 inhibitor compstatin (R&D Systems), AP inhibitor TT30 (Alexion Therapeutics), a protease inhibitor alpha1-antitrypsin (Sigma-Aldrich), and the thrombin receptor proteinase activated receptor 1 inhibitor SCH 79797 (Sigma-Aldrich). Treatments were performed 60 min prior to the addition of thrombin. Cell culture supernatant and lysate were collected after specific time points or after 24 hrs of treatment and stored at −20° C. for later use.
Western blotting. […] Cell lysates were collected in RIPA cell lysis buffer containing 150 mM NaCl, 1.0% IGEPAL® CA-630, 0.5% sodium deoxycholate, 0.1% SDS, 50 mM Tris (pH 8.0) (Sigma-Aldrich) in presence of 1×protease inhibitor (Sigma-Aldrich). Equal amount of each samples were loaded on 4-20% Criterion™ TGX™ precast gels (Bio-Rad Laboratories, Inc.) (Annamalai, B., et al. (2020). Invest Ophthalmol Vis Sci 61, 45). Proteins were transferred to a nitrocellulose membrane and incubated in primary antibody followed by appropriate secondary antibodies coupled to peroxidase, followed by band development and detection using Clarity™ Western ECL blotting substrate (Bio-Rad Laboratories, Inc.) and chemiluminescent detection. Protein bands were scanned and densities quantified using ImageJ software. The following antibodies were used: C3a (1:1000; Complement Technology), C5a (1:1000; Abcam), connective tissue growth factor/CTGF (1:1000; Abcam), C3d anti-C3d (clone 11, 1:1000; generation of the antibody is described in (Thurman, J. M., et al. (2013). J Clin Invest 123, 2218-2230)), VEGF (1:1000, Santa Cruz Biotechnology, Inc.), β-actin (1:2000; Cell Signaling Technology) and concentrations selected based on the data sheet recommendations.
ARPE-19 cell monolayers were treated with thrombin (0.5-10 U/ml) and cell lysates were collected and analyzed for CTGF levels at 4 hrs post treatment by western blotting.

ARPE-19 cell monolayers = experiment: Transepithelial resistance (TER) of ARPE-19 monolayers; type: cell-based, human
Procedure: (§1) Cell culture experiments: Cells. […] Frontiers in Aging Neuroscience 9).
Thrombin reduces barrier function in RPE cells and induces CTGF expression and VEGF secretion. […] Thrombin is a serine-protease and is a known contributor to the damage of the blood-brain barrier (Machida, T., et al. (2017). PLoS One 12, e0177447). To examine the effects of thrombin on the blood-retina barrier (i.e., TER), dose- (0.5-10.0 U/ml) and time- (4 and 24 hrs) dependent treatments were performed on stable ARPE-19 cell monolayers, and treatment effects on TER levels to TER at baseline (serum free media/SFM before treatment, 0 hrs) (FIG. 2) were compared.

[2] = tested on: VEGF secretion in ARPE-19 cells; experiment: VEGF secretion into apical supernatant of ARPE-19 monolayers (ELISA); type: cell-based, human
Procedure: as §1
VEGF ELISA. VEGF in the supernatant was measured using the Quantikine® Human VEGF Immunoassay (R & D System) according to the manufacturer's protocol. In brief, 200 μl of standard/sample was mixed with 50 μl of assay diluent and added to the plate precoated with the capture antibody. After washing, 200 μl of the VEGF detection antibody (polyclonal antibody specific for human VEGF conjugated to horseradish peroxidase) was added, followed by freshly prepared substrate reagents (stabilized hydrogen peroxide and tetramethylbenzidine). The reaction was terminated using 50 μl of stop solution and absorbance was measured at λ1 450 nm with wavelength correction λ2 at 540 nm. VEGF concentration of samples were calculated comparing the absorbance with the standards and converted into fold change considering the serum-free condition as 1 in the scale.

complement component C3 = experiment: Thrombin-mediated C3 cleavage in apical supernatants of ARPE-19 cells (western blot); type: cell-based, human; conditions: 100 μM
Procedure: Second, it was tested whether thrombin can cleave complement components (Huber-Lang, M., et al. (2006). Nat Med 12, 682-687; and Krisinger, M. J., et al. (2012). Blood 120, 1717-1725), specifically C3 and C5, producing cleavage products potentially different from those produced by classical convertases. To test the effects of thrombin on complement cleavage, the apical supernatants of treated ARPE-19 cell monolayers were analyzed by western blotting. Cleavage of C3α was evaluated using an antibody specific for C3a (FIG. 5A, left-hand blot). The C3a antibody detected C3, the C3α band as well as other fragments containing C3a. Thrombin caused a concentration dependent cleavage of complement component C3 (˜190 kDa), caused reduction of the 120 kDa C3a band and generation of a new 80 kDa fragment. Fragments at 32 kDa and 9-10 kDa with higher doses of thrombin treatment (FIG. 5A, 10 U/mL) were also observed. The 9-10 kDa band ran at the same molecular weight as purified C3a (FIG. 11). The reduction of the 120 kDa fragment was correlated with the generation of the 80 kDa fragment (FIG. 5B). The loss of the 120 kDa fragment was prevented by either dabigatran (10 μM) or the C3 inhibitor compstatin (100 μM), which inhibits complement both on cell membranes as well as in fluid phase, but not by TT30 (10 μM), which is an inhibitor that prevents membrane-bound AP activation (FIG. 5C). […]

thrombin = thrombin (Homo sapiens, UniProt P00734); experiment: Thrombin activity in cell-free system; conditions: 100 μM
Procedure: Thrombin activity in cell-free system. To measure the level of active thrombin in cell-free system, known concentrations of thrombin were prepared in 100 μl of assay buffer (50 mM Tris, 100 mM NaCl, and 0.01% BSA; pH 7.5), subsequently 50 μl of thrombin substrate was added and incubated at 37° C. Fluorescence was measured at 405 nm using the Biotek Synergy HT Microplate Reader and thrombin activity was determined by extrapolation from a thrombin standard curve. Effects of inhibitors were tested by pre-incubating the inhibitors with thrombin, before substrate incorporation.

alpha1-antitrypsin: general (non-specific) protease inhibitor (Sigma-Aldrich)
reduction of thrombin-induced CTGF expression ([1]; alpha1-antitrypsin 1 mg/mL): 5.3 fold

thrombin
effect on TER (ARPE-19 cell monolayers; thrombin 0.5 U/mL, apical): barely affected
effect on TER (ARPE-19 cell monolayers; thrombin 2.5 U/ml, 24 hrs): significant damage to the epithelial barrier integrity
effect on TER (ARPE-19 cell monolayers; thrombin 5 U/ml and 10 U/ml, 4 hrs): significant barrier function loss
increase of VEGF in apical supernatants ([2]; thrombin alone): 2.5 fold
effect on CTGF expression ([1]; thrombin, 4 hrs, P<0.05): significantly increased

C3a: complement component, anaphylatoxin (Complement Technology)
effect on VEGF secretion ([2]; C3a, 260 nM): weak stimulator

CC(C)c1ccc(Cn2ccc3c4c(N)nc(NC5CC5)nc4ccc32)cc1 [SCH79797]
effect on thrombin-induced VEGF secretion ([2]; SCH79797): reduced
reduction of thrombin-induced CTGF expression ([1]; SCH79797 250 μM): 1.7 fold

CC[C@H](C)[C@H](N)C(=O)N[C@H]1CSSC[C@@H](C(=O)N[C@H](C(N)=O)[C@@H](C)O)NC(=O)[C@H](CCCN=C(N)N)NC(=O)[C@H](Cc2cnc[nH]2)NC(=O)[C@H](Cc2cnc[nH]2)NC(=O)CNC(=O)[C@H](Cc2c[nH]c3ccccc23)NC(=O)[C@H](CC(=O)O)NC(=O)[C@H](CCC(N)=O)NC(=O)[C@H](C(C)C)NC(=O)[C@H](C(C)C)NC1=O [compstatin]
effect on thrombin-mediated loss of the 120 kDa C3 fragment (complement component C3): prevented
effect on thrombin-induced VEGF secretion ([2]; compstatin): partially reduce
effect on thrombin enzyme activity (thrombin): did not affect
effect on thrombin-induced CTGF expression ([1]; compstatin): partially reduce

B1: C5a: complement component, anaphylatoxin (Complement Technology) (protein, UniProt P01031 678-751, looked up)
C5a anaphylatoxin: TLQKKIEEIAAKYKHSVVKKCCYDGACVNNDETCEQRAARISLGPRCIKAFTECCVVASQLRANISHKDMQLGR
modifications: C5a anaphylatoxin
effect on VEGF secretion ([2]; C5a, 52 nM): increasing VEGF levels to that identified by thrombin stimulation
